{"source": "patent US12655156B2", "about": "“Oxadiazolopyrazines and oxadiazolopyridines useful as mitochondrial uncouplers” (Virginia Tech Intellectual Properties, Inc., priority 2018, dated 2026)", "data": [{"tested_on": "whole cells (NMuLi, C2C12, and L6 cells, isolated cardiomyocytes, human primary fibroblasts)", "experiment": "Oxygen consumption rate (OCR) in whole cells, Seahorse XF-24 Flux Analyzer", "format": "cell-based", "conditions": "increase in OCR; binned EC50 values", "experimental": "Biological activities of the compounds synthesized is determined by determining increase in oxygen consumption rate (OCR).\nOxygen consumption rate (OCR) in whole cells is measured in general accordance with the method of Kenwood B M et al. (Mol. Met. (2014) 3:114-123).\nOCR is measured using a Seahorse XF-24 Flux Analyzer (Seahorse Biosciences, North Billerica, MA). NMuLi, C2C12, and L6 cells are seeded in a Seahorse 24-well tissue culture plate at a density of 3.5×10^4 cells/well, isolated cardiomyocytes at a density of 4×10^4 cells/well, and human primary fibroblasts at a density of 1.1×10^4 cells/well. The cells are then allowed to adhere for 24 h. Prior to the assay, the media is changed to unbuffered DMEM containing pyruvate and glutamine (Gibco #12800-017, pH=7.4 at 37° C.) and the cells are equilibrated for 30 mins at 37°° C. Compounds are injected during the assay and OCR is measured using 2 min measurement periods.\n2-3 wells are used per condition and averaged over three plates (n=6-9). Statistical significance is determined by two-way ANOVA with Bonferroni's posttest.\nActivities are reported as binned EC50 values: A=5 μM or less; B=>5 to 20 μM; C=over 20 μM; NA=not active.", "units": {"EC50": "µM"}, "values": [{"smiles": "Oc1nc2nonc2nc1Nc1ccc(C(F)(F)F)c(F)c1", "note": "[1-42, 6-((3-Fluoro-4-(trifluoromethyl)phenyl)amino)-[1,2,5]oxadiazolo[3,4-b]pyrazin-5-ol]", "EC50": "5 to 20"}, {"smiles": "CCCCCCCCNc1nc2nonc2nc1O", "note": "[1-74, 6-(octylamino)-[1,2,5]oxadiazolo[3,4-b]pyrazin-5-ol]", "EC50": "≤ 5"}, {"smiles": "Oc1nc2nonc2nc1Nc1ccc(C(F)(F)F)nc1", "note": "[1-208, 6-((6-(trifluoromethyl)pyridin-3-yl)amino)-[1,2,5]oxadiazolo[3,4-b]pyrazin-5-ol]", "EC50": "> 20"}, {"smiles": "Oc1nc2nonc2nc1Nc1ccc2c(c1)OC(F)(F)O2", "note": "[1-93, 6-((2,2-difluorobenzo[d][1,3]dioxol-5-yl)amino)-[1,2,5]oxadiazolo[3,4-b]pyrazin-5-ol]", "EC50": "5 to 20"}, {"smiles": "O=C(Nc1nc2nonc2nc1OCc1ccccc1)c1ccc(C(F)(F)F)cc1", "note": "[1-196, N-(6-(benzyloxy)-[1,2,5]oxadiazolo[3,4-b]pyrazin-5-yl)-4-(trifluoromethyl)benzamide]", "EC50": "5 to 20"}, {"smiles": "Oc1nc2nonc2nc1Nc1cccc(-c2cc(F)cc(F)c2)c1", "note": "[1-119, 6-((3′,5′-difluoro-[1,1′-biphenyl]-3-yl)amino)-[1,2,5]oxadiazolo[3,4-b]pyrazin-5-ol]", "EC50": "≤ 5"}, {"smiles": "Oc1nc2nonc2nc1Nc1cccc(-c2cccc(C(F)(F)F)c2)c1", "note": "[1-135, 6-((3′-(trifluoromethyl)-[1,1′-biphenyl]-3-yl)amino)-[1,2,5]oxadiazolo[3,4-b]pyrazin-5-ol]", "EC50": "≤ 5"}, {"smiles": "CCc1cccc(Nc2nc3nonc3nc2O)c1", "note": "[1-46, 6-((3-Ethylphenyl)amino)-[1,2,5]oxadiazolo[3,4-b]pyrazin-5-ol]", "EC50": "5 to 20"}, {"smiles": "Oc1nc2nonc2nc1Nc1ccc(OC(F)(F)F)cc1", "note": "[1-10, 6-((4-(Trifluoromethoxy)phenyl)amino)-[1,2,5]oxadiazolo[3,4-b]pyrazin-5-ol]", "EC50": "5 to 20"}, {"smiles": "Oc1nc2nonc2nc1NCc1ccc(Br)cc1", "note": "[1-77, 6-((4-bromobenzyl)amino)-[1,2,5]oxadiazolo[3,4-b]pyrazin-5-ol]", "EC50": "> 20"}, {"smiles": "Oc1nc2nonc2nc1Nc1cccc(OC(F)(F)F)c1", "note": "[1-9, 6-((3-(Trifluoromethoxy)phenyl)amino)-[1,2,5]oxadiazolo[3,4-b]pyrazin-5-ol]", "EC50": "≤ 5"}, {"smiles": "Oc1nc2nonc2nc1Nc1ccccc1C(F)(F)F", "note": "[1-6, 6-((2-(Trifluoromethyl)phenyl)amino)-[1,2,5]oxadiazolo[3,4-b]pyrazin-5-ol]", "EC50": "5 to 20"}, {"smiles": "Oc1nc2nonc2nc1Nc1cccc(I)c1", "note": "[1-18, 6-((3-Iodophenyl)amino)-[1,2,5]oxadiazolo[3,4-b]pyrazin-5-ol]", "EC50": "5 to 20"}, {"smiles": "CCc1ccc(Nc2nc3nonc3nc2O)c(F)c1", "note": "[1-68, 6-((4-ethyl-2-fluorophenyl)amino)-[1,2,5]oxadiazolo[3,4-b]pyrazin-5-ol]", "EC50": "5 to 20"}, {"smiles": "Oc1nc2nonc2nc1Nc1ccc(C(O)(C(F)(F)F)C(F)(F)F)cc1", "note": "[1-26, 6-((4-(1,1,1,3,3,3-Hexafluoro-2-hydroxypropan-2-yl)phenyl)amino)-[1,2,5]oxadiazolo[3,4-b]pyrazin-5-ol]", "EC50": "> 20"}, {"smiles": "Oc1nc2nonc2nc1Nc1cccc(-c2ccc(OC(F)(F)F)cc2)c1", "note": "[1-136, 6-((4′-(trifluoromethoxy)-[1,1′-biphenyl]-3-yl)amino)-[1,2,5]oxadiazolo[3,4-b]pyrazin-5-ol]", "EC50": "≤ 5"}, {"smiles": "Oc1nc2nonc2nc1Nc1ccccc1F", "note": "[1-3, 6-((2-Fluorophenyl)amino)-[1,2,5]oxadiazolo[3,4-b]pyrazin-5-ol]", "EC50": "5 to 20"}, {"smiles": "CCc1ccc(Nc2nc3nonc3nc2O)cc1", "note": "[1-61, 6-((4-Ethylphenyl)amino)-[1,2,5]oxadiazolo[3,4-b]pyrazin-5-ol]", "EC50": "5 to 20"}, {"smiles": "Oc1nc2nonc2nc1Nc1ccc(F)cc1", "note": "[1-5, 6-((4-Fluorophenyl)amino)-[1,2,5]oxadiazolo[3,4-b]pyrazin-5-ol]", "EC50": "> 20"}, {"smiles": "CCCCCc1ccc(Nc2nc3nonc3nc2O)c(F)c1", "note": "[1-66, 6-((2-Fluoro-4-pentylphenyl)amino)-[1,2,5]oxadiazolo[3,4-b]pyrazin-5-ol]", "EC50": "≤ 5"}, {"smiles": "Oc1nc2nonc2nc1Nc1ccc(F)c(-c2ccc(C(F)(F)F)nc2)c1", "note": "[1-116, 6-((4-fluoro-3-(6-(trifluoromethyl)pyridin-3-yl)phenyl)amino)-[1,2,5]oxadiazolo[3,4-b]pyrazin-5-ol]", "EC50": "5 to 20"}, {"smiles": "CC(Nc1nc2nonc2nc1O)C12CC3CC(CC(C3)C1)C2", "note": "[1-83, 6-((1-((1S,3S)-adamantan-1-yl)ethyl)amino)-[1,2,5]oxadiazolo[3,4-b]pyrazin-5-ol]", "EC50": "5 to 20"}, {"smiles": "Oc1nc2nonc2nc1Nc1cc(C(F)(F)F)cc(C(F)(F)F)c1", "note": "[1-34, 6-((3,5-Bis(trifluoromethyl)phenyl)amino)-[1,2,5]oxadiazolo[3,4-b]pyrazin-5-ol]", "EC50": "5 to 20"}, {"smiles": "CCCCOc1cccc(Nc2nc3nonc3nc2O)c1", "note": "[1-96, 6-((3-butoxyphenyl)amino)-[1,2,5]oxadiazolo[3,4-b]pyrazin-5-ol]", "EC50": "≤ 5"}, {"smiles": "Oc1nc2nonc2nc1Nc1ccc(OCC(F)(F)F)c(F)c1", "note": "[1-90, 6-((3-Fluoro-4-(2,2,2-trifluoroethoxy)phenyl)amino)-[1,2,5]oxadiazolo[3,4-b]pyrazin-5-ol]", "EC50": "5 to 20"}, {"smiles": "Oc1nc2nonc2nc1Nc1ccc(OC(F)(F)F)c(Br)c1", "note": "[1-39, 6-((3-Bromo-4-(trifluoromethoxy)phenyl)amino)-[1,2,5]oxadiazolo[3,4-b]pyrazin-5-ol]", "EC50": "≤ 5"}, {"smiles": "Oc1nc2nonc2nc1Nc1ccc(C2CCCCC2)cc1", "note": "[1-205, 6-((4-cyclohexylphenyl)amino)-[1,2,5]oxadiazolo[3,4-b]pyrazin-5-ol]", "EC50": "≤ 5"}, {"smiles": "Oc1nc2nonc2nc1Nc1ccc(-c2ccc(F)cc2)cc1F", "note": "[1-124, 6-((3,4′-difluoro-[1,1′-biphenyl]-4-yl)amino)-[1,2,5]oxadiazolo[3,4-b]pyrazin-5-ol]", "EC50": "≤ 5"}, {"smiles": "Oc1nc2nonc2cc1Nc1cc(C(F)(F)F)cc(C(F)(F)F)c1", "note": "[1-243, 6-((3,5-bis(trifluoromethyl)phenyl)amino)-[1,2,5]oxadiazolo[3,4-b]pyridin-5-ol]", "EC50": "≤ 5"}, {"smiles": "O=C(COc1cccc(Nc2nc3nonc3nc2O)c1)c1ccc(OC(F)(F)F)cc1", "note": "[1-98, 2-(3-((6-hydroxy-[1,2,5]oxadiazolo[3,4-b]pyrazin-5-yl)amino)phenoxy)-1-(4-(trifluoromethoxy)phenyl)ethan-1-one]", "EC50": "5 to 20"}, {"smiles": "CCCCc1ccc(Nc2nc3nonc3nc2O)cc1", "note": "[1-54, 6-((4-Butylphenyl)amino)-[1,2,5]oxadiazolo[3,4-b]pyrazin-5-ol]", "EC50": "≤ 5"}, {"smiles": "Oc1nc2nonc2nc1Nc1cccc(-c2ccc(C(F)(F)F)cc2)c1", "note": "[1-131, 6-((4′-(trifluoromethyl)-[1,1′-biphenyl]-3-yl)amino)-[1,2,5]oxadiazolo[3,4-b]pyrazin-5-ol]", "EC50": "≤ 5"}, {"smiles": "Oc1nc2nonc2nc1Nc1cccc(F)c1F", "note": "[1-14, 6-((2,3-Difluorophenyl)amino)-[1,2,5]oxadiazolo[3,4-b]pyrazin-5-ol]", "EC50": "5 to 20"}, {"smiles": "Oc1nc2nonc2nc1Nc1cccc(OCc2ccc(C(F)(F)F)cc2)c1", "note": "[1-97, 6-((3-((4-(Trifluoromethyl)benzyl)oxy)phenyl)amino)-[1,2,5]oxadiazolo[3,4-b]pyrazin-5-ol]", "EC50": "≤ 5"}, {"smiles": "COc1cc(OC(F)(F)F)ccc1Nc1nc2nonc2nc1O", "note": "[1-22, 6-((2-Methoxy-4-(trifluoromethoxy)phenyl)amino)-[1,2,5]oxadiazolo[3,4-b]pyrazin-5-ol]", "EC50": "≤ 5"}, {"smiles": "O=[N+]([O-])c1cccc(Nc2nc3nonc3nc2O)c1", "note": "[1-206, 6-((3-nitrophenyl)amino)-[1,2,5]oxadiazolo[3,4-b]pyrazin-5-ol]", "EC50": "> 20"}, {"smiles": "Oc1nc2nonc2nc1NCc1ccc(OC(F)(F)F)cc1", "note": "[1-80, 6-((4-(trifluoromethoxy)benzyl)amino)-[1,2,5]oxadiazolo[3,4-b]pyrazin-5-ol]", "EC50": "> 20"}, {"smiles": "Oc1nc2nonc2cc1Nc1cccc(F)c1F", "note": "[1-250, 6-((2,3-difluorophenyl)amino)-[1,2,5]oxadiazolo[3,4-b]pyridin-5-ol]", "EC50": "≤ 5"}, {"smiles": "Oc1nc2nonc2nc1NC1CCCCC1", "note": "[1-212, 6-(cyclohexylamino)-[1,2,5]oxadiazolo[3,4-b]pyrazin-5-ol]", "EC50": "> 20"}, {"smiles": "Oc1nc2nonc2nc1Nc1ccc(SC(F)(F)F)cc1", "note": "[1-25, 6-((4-((Trifluoromethyl)thio)phenyl)amino)-[1,2,5]oxadiazolo[3,4-b]pyrazin-5-ol]", "EC50": "≤ 5"}, {"smiles": "Oc1nc2nonc2nc1Nc1ccc(OC(F)(F)F)cc1F", "note": "[1-36, 6-((2-Fluoro-4-(trifluoromethoxy)phenyl)amino)-[1,2,5]oxadiazolo[3,4-b]pyrazin-5-ol]", "EC50": "≤ 5"}, {"smiles": "Oc1nc2nonc2nc1Nc1ccc(-c2ccc(OC(F)F)cc2)cc1", "note": "[1-108, 6-((4′-(difluoromethoxy)-[1,1′-biphenyl]-4-yl)amino)-[1,2,5]oxadiazolo[3,4-b]pyrazin-5-ol]", "EC50": "≤ 5"}, {"smiles": "Oc1nc2nonc2nc1Nc1cccc(-c2ccc(F)c(C(F)F)c2)c1", "note": "[1-114, 6-((3′-(difluoromethyl)-4′-fluoro-[1,1′-biphenyl]-3-yl)amino)-[1,2,5]oxadiazolo[3,4-b]pyrazin-5-ol]", "EC50": "≤ 5"}, {"smiles": "Oc1nc2nonc2nc1Nc1ccc(OCc2ccccc2)cc1", "note": "[1-86, 6-((4-(benzyloxy)phenyl)amino)-[1,2,5]oxadiazolo[3,4-b]pyrazin-5-ol]", "EC50": "≤ 5"}, {"smiles": "Oc1nc2nonc2cc1Nc1ccc(OC(F)(F)F)c(F)c1", "note": "[1-230, 6-((3-fluoro-4-(trifluoromethoxy)phenyl)amino)-[1,2,5]oxadiazolo[3,4-b]pyridin-5-ol]", "EC50": "> 20"}]}]}
